Laboratory results taken from paper PMC3961306, “Comparison of the Cancer Gene Targeting and Biochemical Selectivities of All Targeted Kinase Inhibitors Approved for Clinical Use” (PLoS ONE, 2014).
Like-named read-outs stand apart in the source and are kept apart here.

Test system: forty-four human cancer cell lines
Test: Cell proliferation assay (ATPlite, 72 hours) in the 44 cell line Oncolines panel
Assay type: cell-based
Conditions: for IC50: Homo sapiens
[1] = 769-P, cell line 769-P, read-out: cell panel IC50, 769-P
[2] = 786-0, cell line 786-0, read-out: cell panel IC50, 786-0
[3] = A 172, read-out: cell panel IC50, A-172, cell line A-172
[4] = A204, cell line A-204, read-out: cell panel IC50, A-204
[5] = A498, read-out: cell panel IC50, A-498, cell line A-498
[6] = A549, read-out: cell panel IC50, A-549, cell line A-549
[7] = A-375, cell line A375, read-out: cell panel IC50, A375
[8] = A-427, read-out: cell panel IC50, A-427, cell line A-427
[9] = ACHN, cell line ACHN, read-out: cell panel IC50, ACHN
[10] = AN3-CA, cell line AN3 CA, read-out: cell panel IC50, AN3 CA
[11] = AU565, read-out: cell panel IC50, AU-565, cell line AU-565
[12] = BT-20, cell line BT-20, read-out: cell panel IC50, BT-20
[13] = BT-549, read-out: cell panel IC50, BT-549, cell line BT-549
[14] = BXPC-3, cell line BxPC-3, read-out: cell panel IC50, BxPC-3
[15] = C-33-A, cell line C-33 A, read-out: cell panel IC50, C-33 A
[16] = CAL-27, cell line CAL 27, read-out: cell panel IC50, CAL 27
[17] = CCRF-CEM, cell line CCRF-CEM, read-out: cell panel IC50, CCRF-CEM
[18] = DLD-1, cell line DLD-1, read-out: cell panel IC50, DLD-1
[19] = FaDu, cell line FaDu, read-out: cell panel IC50, FaDu
[20] = HCT-15, cell line HCT-15, read-out: cell panel IC50, HCT-15
[21] = HCT-116, read-out: cell panel IC50, HCT-116, cell line HCT-116
[22] = Hs-578T, cell line Hs 578T, read-out: cell panel IC50, Hs 578T
[23] = Jurkat E6.1, cell line Jurkat E6.1, read-out: cell panel IC50, Jurkat E6.1
[24] = K562, read-out: cell panel IC50, K-562, cell line K-562
[25] = LS174T, read-out: cell panel IC50, LS 174T, cell line LS 174T
[26] = LoVo, cell line LoVo, read-out: cell panel IC50, LoVo
[27] = MG-63, cell line MG-63, read-out: cell panel IC50, MG-63
[28] = MOLT-4, cell line MOLT-4, read-out: cell panel IC50, MOLT-4
[29] = MeWo, cell line MeWo, read-out: cell panel IC50, MeWo
[30] = NCI-H82, cell line NCI-H82, read-out: cell panel IC50, NCI-H82
[31] = NCI-H460, cell line NCI-H460, read-out: cell panel IC50, NCI-H460
[32] = OVCAR-3, cell line OVCAR-3, read-out: cell panel IC50, OVCAR-3
[33] = RPMI-7951, cell line RPMI-7951, read-out: cell panel IC50, RPMI-7951
[34] = SHP77, cell line SHP-77, read-out: cell panel IC50, SHP-77
[35] = SK-N-AS, cell line SK-N-AS, read-out: cell panel IC50, SK-N-AS
[36] = SW48, cell line SW48, read-out: cell panel IC50, SW48
[37] = SW480, cell line SW480, read-out: cell panel IC50, SW480
[38] = SW-620, cell line SW620, read-out: cell panel IC50, SW620
[39] = U2OS, cell line U-2 OS, read-out: cell panel IC50, U-2 OS
[40] = U-87 MG, 72 h, U-87 MG cell line, ATPlite, 72 hours, read-out: IC50 in cell proliferation assay (table S5 cellpanel data)
[41] = cell line J82, read-out: cell panel IC50, J82
[42] = cell line PA-1, read-out: cell panel IC50, PA-1
[43] = cell line SJCRH30, read-out: cell panel IC50, SJCRH30
[44] = cell line SR, read-out: cell panel IC50, SR

O=c1[nH]cc(F)c(=O)[nH]1 [5-fluorouracil]
IC50 [1]: 4740 nM
IC50 [2]: 2210 nM
IC50 [3]: 987 nM
IC50 [4]: 1420 nM
IC50 [5]: 1700 nM
IC50 [6]: 1180 nM
IC50 [7]: 3660 nM
IC50 [8]: 1820 nM
IC50 [9]: 2450 nM
IC50 [10]: 7340 nM
IC50 [11]: 1010 nM
IC50 [12]: 6340 nM
IC50 [13]: 1850 nM
IC50 [14]: 5180 nM
IC50 [15]: 4610 nM
IC50 [16]: 4070 nM
IC50 [17]: 15100 nM
IC50 [18]: 1030 nM
IC50 [19]: 1130 nM
IC50 [20]: 1840 nM
IC50 [21]: 1260 nM
IC50 [22]: 7950 nM
IC50 [23]: 3340 nM
IC50 [24]: 5530 nM
IC50 [25]: 4800 nM
IC50 [26]: 3200 nM
IC50 [27]: 3030 nM
IC50 [28]: 2070 nM
IC50 [29]: 4280 nM
IC50 [30]: 1920 nM
IC50 [31]: 1590 nM
IC50 [32]: 3460 nM
IC50 [33]: 1220 nM
IC50 [34]: 22800 nM
IC50 [35]: 2580 nM
IC50 [36]: 1860 nM
IC50 [37]: 1730 nM
IC50 [38]: 4200 nM
IC50 [39]: 2460 nM
IC50 [40]: 2460 nM
IC50 [41]: > 31600 nM
IC50 [42]: 814 nM
IC50 [43]: 7210 nM
IC50 [44]: 546 nM

CNC(=O)c1ccccc1Sc1ccc2c(/C=C/c3ccccn3)n[nH]c2c1 [axitinib]
IC50 (4-4 cell, read-out: cell panel IC50, PA-1): 1290 nM
IC50 (A498, read-out: cell panel IC50, A-498): 3210 nM
IC50 (A-375, read-out: cell panel IC50, A375): 5650 nM
IC50 (HCT-116, read-out: cell panel IC50, HCT-116): 2290 nM
IC50 (SHP77, read-out: cell panel IC50, SHP-77): 5570 nM

CC(C)C[C@H](NC(=O)[C@H](Cc1ccccc1)NC(=O)c1cnccn1)B(O)O [bortezomib]
Difference between the average IC50 in the cell panel and the most potent IC50 (44 cell line panel, Figure 2D): 10 fold
IC50 [1]: 18 nM
IC50 [2]: 15 nM
IC50 [3]: 4.63 nM
IC50 [4]: 2090 nM
IC50 [5]: 6 nM
IC50 [6]: 9 nM
IC50 [7]: 13 nM
IC50 [8]: 11 nM
IC50 [9]: 10 nM
IC50 [10]: 13 nM
IC50 [11]: 18 nM
IC50 [12]: 64 nM
IC50 [13]: 245 nM
IC50 [14]: 28 nM
IC50 [15]: 14 nM
IC50 [16]: 6 nM
IC50 [17]: 10 nM
IC50 [18]: 19 nM
IC50 [19]: 21 nM
IC50 [20]: 31 nM
IC50 [21]: 221 nM
IC50 [22]: 5.28 nM
IC50 [23]: 18 nM
IC50 [24]: 16 nM
IC50 [25]: 10 nM
IC50 [26]: 6 nM
IC50 [27]: 5.68 nM
IC50 [28]: 8 nM
IC50 [29]: 11 nM
IC50 [30]: 28 nM
IC50 [31]: 85 nM
IC50 [32]: 79 nM
IC50 [33]: 7 nM
IC50 [34]: 66 nM
IC50 [35]: 6 nM
IC50 [36]: 10 nM
IC50 [37]: < 3.16 nM
IC50 [38]: 4 nM
IC50 [39]: 53 nM
IC50 [40]: 10 nM
IC50 [41]: 11 nM
IC50 [42]: 4.74 nM
IC50 [43]: 27 nM
IC50 [44]: 12 nM
